Legend:
Cln3^Δex7-8 mice [1] = test: Astrocytosis, GFAP immunohistochemistry; assay type: in vivo, mouse; conditions: for decrease of GFAP immunoreactivity: 12 months of age
Method: (§1) Brains were subsequently removed and postfixed overnight. Before sectioning, the brains were cryoprotected in a solution containing 30% sucrose in Tris-buffered saline (TBS: 50 mM Tris, pH 7.6). Consecutive […] floating coronal sections were collected in 96-well plates. Series of sections were then stained with primary antisera against CD68 or GFAP, followed by either rabbit anti-rat (VectorLab) and swine anti-rabbit (DAKO) secondary antibodies, and immunoreactivity detected with Vectastain ABC (avidin-biotin) kit (Vector) and diaminobenzidine as a chromogen.
(§2) Thirty non-overlapping images were captured, on three consecutive sections, through each region of interest. All RGB images were captured via a live video camera (JVC, 3CCD, KY-F55B), mounted onto a Zeiss Axioplan microscope using a ×40 objective and saved as JPEGs. All parameters including lamp intensity, video camera set-up and calibration were maintained constant throughout image capturing. Images were subsequently analysed using ImageJ analysis software (NIH), using an appropriate threshold that selected the foreground immunoreactivity above background. This threshold was then applied as a constant to all subsequent images analysed per batch of animals and reagent used to determine the specific area of immunoreactivity for each antigen in each region. This analysis was performed blind to genotype. Data were plotted graphically as the mean percentage area of immunoreactivity per field±s.e.m. for each region.

Cln3^Δex7-8 mice [2] = test: Microglial activation, CD68 immunohistochemistry; assay type: in vivo, mouse
Method: as §1
as §2, with “Data were plotted graphically as the mean percentage area of immunoreactivity per field±s.e.m. for each region.” left out

mTORC1 = target: T1, mTORC1 (Homo sapiens, UniProt P42345); test: Immunoblot of mTORC1 substrates in HeLa cells; assay type: cell-based; conditions: trehalose 24 h or 48 h
T1 construct: endogenous in cells; host or cells: HeLa
Method: FIG. 8. […] HeLa cells were treated with trehalose for 24 h or 48 h, or with rapamycin (600 nM, 16 h) or Torin1 (300 nM, 2 h) as controls for mTORC1 inhibition. […] GAPDH was used as a loading control.
(§3) Brain tissue and cultured cells were collected and lysed in RIPA buffer (50 mM Tris-HCl, ph 7.4, 1% NP40, 0.5% Na-deoxycholate, 0.1% SDS, 150 mM NaCl, 2 mM EDTA and 50 mM NaF) including a cocktail of protease (Roche) and phosphatase (SIGMA) inhibitors. Protein concentrations were measured with the bicinchoninic acid protein assay kit (Pierce, Rockford, Ill.), using bovine serum albumin as standard. Lysates were separated via SDS-polyacrylamide gel electrophoresis (PAGE) and then transferred to nitrocellulose membranes. Blots were incubated in blocking buffer (5%, w/v, dried skimmed milk in Tris-buffered saline, pH 7.4 and 0.2% Tween 20, TBST) followed by overnight incubation with appropriate antibodies diluted in blocking buffer (5% dry milk). Western blot images were acquired by LAS 4000 (GE Healthcare) and quantified using ImageJ. Images have been cropped for presentation.

LAMP1 = LAMP1 immunoblot in primary cortical astrocyte cultures; assay type: cell-based, mouse; conditions: astrocytes from WT and Cln3^Δex7-8 mice, 100 mM trehalose 4 days
Method: Astrocytes were isolated from P0-1 mice and plated on poly-D-lysine coated six-well plates (BD Biosciences) in the presence of DMEM high glucose, supplemented with 10% FBS and 100 U/ml penicillin and […] streptomycin. After 7 days, the glial cell layer was removed and astrocytes were plated for treatment. An amount of 100 mM of trehalose was dissolved in the media the day after and kept for 4 days. Finally, astrocytes were collected and protein extracts were analysed by western blot assay.
as §3

HeLa cells = test: Autophagic flux in HeLa cells (LAMP1, p62, LC3 markers); assay type: cell-based, human; conditions: time course
Method: FIG. 14. Akt phosphorylates TFEB at Ser467. […] Dashed boxes (upper row) show the location of the higher power inserts (lower row). (b) Subcellular fractionation of HeLa/TFEB cells incubated with the same kinase inhibitors. (c) Multi-alignment of TFEB amino-acid sequences from the following species: Ac, Anolis carolensis; Bt, Bos taurus; Dr, Danio rerio; Fc, Felix catus; Gg, gallus gallus; Hs, Homo sapiens; La, Loxodonta africana; Mm, Mus musculus; Rn, Rattus Norvegicus; Sh, Sarcophilus harrisii; Sp, Strongylocentrotus purpuratus; XI, Xenopus laevis. A consensus logo of Akt phosphorylation sites (generated at weblogo.berkeley.edu/logo.cgi) is aligned with TFEB sequences. Position 467 refers to the human protein sequence. (d) Subcellular localization of TFEB and TFEB(S467A). (e) Expression analysis of lysosomal and autophagy genes in HeLa cells transfected with TFEB or TFEB(S467A). […]
Brain tissue and cultured cells were collected and lysed in RIPA buffer (50 mM Tris-HCl, ph 7.4, 1% NP40, 0.5% Na-deoxycholate, 0.1% SDS, 150 mM NaCl, 2 mM EDTA and 50 mM NaF) including a cocktail of protease (Roche) and phosphatase (SIGMA) inhibitors. Protein concentrations were measured with the bicinchoninic acid protein assay kit (Pierce, Rockford, Ill.), using bovine serum albumin as standard. […] Western blot images were acquired by LAS 4000 (GE Healthcare) and quantified using ImageJ. […]

TFE3 = TFE3 nuclear translocation in HeLa cells; assay type: cell-based, human; conditions: HeLa cells transfected with TFE3-3×Flag
Excerpt: (§4) FIG. 23. Pharmacological inhibition of AKT induces nuclear translocation of TFE3 and MITF. HeLa cells were transiently transfected with TFE3-3×Flag (a) and MITF-3×Flag (b) and analyzed by confocal microscopy. Scale bar is 10 μm.

MITF = MITF nuclear translocation in HeLa cells; assay type: cell-based, human; conditions: HeLa cells transfected with MITF-3×Flag
Excerpt: as §4

OC[C@H]1O[C@H](O[C@H]2O[C@H](CO)[C@@H](O)[C@H](O)[C@H]2O)[C@H](O)[C@@H](O)[C@@H]1O [trehalose, a-D-glucopyranosyl a-D-glucopyranoside]
progressive neuroinflammation (GFAP and CD68 immunoreactivity) (Cln3^Δex7-8 mice [1]; S1BF and VPM/VPL, 7 and 12 months of age): mitigated | decrease of GFAP immunoreactivity (Cln3^Δex7-8 mice [1]; S1BF region): 43% | decrease of GFAP immunoreactivity (Cln3^Δex7-8 mice [1]; VPM/VPL region): 67% | microglial activation (CD68) (Cln3^Δex7-8 mice [2]; S1BF region, 7 months of age): significantly rescued | reduction of microglial activation (CD68) (Cln3^Δex7-8 mice [2]; VPM/VPL region, 12 months of age): 48% | phosphorylation state of mTORC1 substrates (mTORC1): no changes in their phosphorylation state | LAMP1 levels (LAMP1): increased LAMP1 levels | autophagic flux (HeLa cells): increasing autophagic flux

Cl.NC1(c2ccc(-c3nc4ccn5c(=O)[nH]nc5c4cc3-c3ccccc3)cc2)CCC1 [MK2206, 8-[4-(1-aminocyclobutyl)phenyl]-9-phenyl-1,2,4-triazolo[3,4-f][1,6]naphthyridin-3(2H)-one]
TFE3 nuclear translocation (TFE3): promoted nuclear translocation of these two factors | MITF nuclear translocation (MITF): promoted nuclear translocation of these two factors
